{"source": "patent US20020142008A1", "about": "“Immunogenic pili presenting foreign peptides, their production and use” (priority 2000, published 2002)", "note": "Ends that are not written are not given here.", "data": [{"tested_on": "experimental pyelonephritis", "assay": "BALB/c murine model of experimental pyelonephritis, F13 peptide conjugate vaccines", "type": "in vivo", "conditions": "BALB/c mice, serial parenteral administration of vaccine, intravesicular challenge", "values": [{"sequence": "AKFGGMGAKKG (also: conjugated to carrier protein) [F13 structural pilin peptide conjugate vaccine]", "protection in experimental pyelonephritis": "protective"}, {"sequence": "PQGQGKVT (also: conjugated to carrier protein) [F72 and F13 pilin A synthetic peptide conjugate vaccine]", "protection in experimental pyelonephritis": "protective"}]}, {"tested_on": "homologous piliated Escherichia coli challenge strains (renal and/or bladder colonization)", "assay": "Intravesicular BALB/c experimental model of pyelonephritis and cystitis, pilin A synthetic peptide conjugate vaccines", "type": "in vivo", "conditions": "BALB/c mice, thyroglobulin and BSA conjugates ~200 ug i.m. day 0 and 14 in incomplete Freund's adjuvant; bladder inoculation 10^8 CFU homologous piliated strain; renal/bladder colonization at 48 hours; protection = >90% of cohort no growth and none >500 CFU per 0.1 gram", "description": "The intravesicular BALB/c experimental model of pyelonephritis and cystitis, as originally described by O'Hanley, was employed to evaluate the protective capacity of structural pilin synthetic peptide conjugate vaccines to prevent subsequent renal and/or bladder colonization by homologous piliated strains at 48 hours after bacterial bladder inoculation. Cohorts of 20 mice per group were vaccinated via intramuscular administration on two occasions with the experimental thyroglobulin and bovine serum albumin conjugate pilin A vaccines (i.e., day 0 and day 14). Each intramuscular dose of experimental vaccine consisted of ^˜200 ug in 100 ul saline emulsified in 100 ul incomplete Freund's adjuvant. Control vaccines consisted of thyroglobulin and bovine serum albumin emulsified in saline and incomplete Freund's adjuvant. These control vaccines were administered in similar fashion and schedule as the experimental vaccines. Challenge for pilin A vaccinated mice entailed bladder inoculation of 10^8 CFU of an Escherichia coli strain that expressed homologous pili. In contrast, the cohort size for control animals was 5 per challenge strain. The table below summarizes the challenge strategy.\nProtection against subsequent renal colonization and bladder colonization by the challenge strain was defined by >90% of the experimental animals in a cohort (i.e., 18 of 20 vaccinated experimental mice) having no bacterial growth from aliquots of homogenized whole right kidney and aliquots of homogenized whole bladders and none of the experimental animals having heavy bacterial growth from the challenge strain in renal or bladder specimens (viz., the absence of ++++ colonization density or >500 CFU of the challenge strain per 0.1 gram of renal or bladder tissue) compared to heavy growth of the challenge strain in both renal and bladder specimens (++++ colonization density or >500 CFU per 0.1 gm of renal or bladder tissue) by the challenge strain in >80% of control animals (i.e. >4 of 5 control mice).", "values": [{"sequence": "TTVTVNGGTVHF (also: conjugated to thyroglobulin or BSA) [F1 structural pilin synthetic peptide conjugated to thyroglobulin or bovine serum albumin]", "Homologous Protection": "Yes"}, {"sequence": "PQGQGEVT (also: conjugated to thyroglobulin or BSA) [F71 pilin A synthetic peptide conjugated to thyroglobulin or bovine serum albumin]", "Homologous Protection": "Yes"}, {"sequence": "PQGQGEVA (also: conjugated to thyroglobulin or BSA) [F71 pilin A synthetic peptide conjugated to thyroglobulin or bovine serum albumin]", "Homologous Protection": "Yes"}, {"sequence": "IPEGQGKVT (also: conjugated to thyroglobulin or BSA) [F12 pilin A synthetic peptide conjugated to thyroglobulin or bovine serum albumin]", "Homologous Protection": "Yes"}, {"sequence": "PQGQGKVT (also: conjugated to carrier protein) [F72 and F13 pilin A synthetic peptide conjugate vaccine]", "Homologous Protection": "Yes"}, {"sequence": "NFKQLQGGAAKKG (also: conjugated to thyroglobulin or BSA) [F71 pilin A synthetic peptide conjugated to thyroglobulin or bovine serum albumin]", "Homologous Protection": "Yes"}, {"sequence": "NFKKAAGGGGAKT (also: conjugated to thyroglobulin or BSA) [F72 pilin A synthetic peptide conjugated to thyroglobulin or bovine serum albumin]", "Homologous Protection": "Yes"}, {"sequence": "NGGTVHFKGEVVN (also: conjugated to thyroglobulin or BSA) [F1C structural pilin synthetic peptide conjugated to thyroglobulin or bovine serum albumin]", "Homologous Protection": "Yes"}, {"sequence": "TTVNGGTVH (also: conjugated to carrier protein) [F9 pilin A synthetic peptide conjugate vaccine]", "Homologous Protection": "Yes"}, {"sequence": "IPQGQGKVTFNGTV (also: conjugated to carrier protein) [F11 pilin A synthetic peptide conjugate vaccine]", "Homologous Protection": "Yes"}, {"sequence": "NFKKAATPGGAAKT (also: conjugated to thyroglobulin or BSA) [F9 pilin A synthetic peptide conjugated to thyroglobulin or bovine serum albumin]", "Homologous Protection": "Yes"}]}]}
